The text below walks through data of patent US20150125589A1, “TASTE-IMPROVING AGENT AND FOOD OR DRINK CONTAINING SAME” (NIPPON SUISAN KAISHA, LTD., priority 2011, published 2015).

A short description of assay [1]: Evaluation method 2: quantitating improvement of unpleasant flavor of potassium chloride as K/Na ratio against standard solutions, chicken stock soup. The note with it: for improvement effect against the unpleasant flavor of potassium chloride: glycoside or aglycone 25 ppm final in standard solution 8, FIG. 17. As to the method:
1.32 g of Chinese soup stock granules (product name=“Marudori-gara Soup”, manufactured by Ajinomoto K.K., standard nutritional ingredients of 2.5 g of Chinese soup stock granules are shown in Table 1) was dissolved in 70 g of distilled water, and the mixture was filtered through filter paper (filter paper no. 2, manufactured by Advantec Toyo K.K.). Thereafter, 0.63 g of NaCl was added, and water was further added to obtain 100 g of chicken stock soup containing an equivalent of 1.26 percent table salt (Table 2, standard solution 1). The concentration of sodium chloride was decreased in a stepwise manner from the composition of the standard solution 1, and potassium chloride was added to produce multiple chicken stock soups (Table 2, standard solutions 2 to 8). The ratio of potassium chloride to sodium chloride ((potassium chloride concentration/sodium chloride concentration)×100(%), referred to hereinafter as “K/Na ratio”) was changed in standard solutions 1 to 8, and the intensity of the unpleasant flavor (i.e. bitterness, astringent taste, harsh taste, and bitter taste) characteristic of potassium chloride increased as the K/Na ratio value increased. The unpleasant flavor intensity increased in a stepwise manner for standard solutions 1 to 8. Intensity of this unpleasant flavor and detailed taste were evaluated by organoleptic evaluation by an expert panel, and results of evaluation were classified in three stages, i.e. initial taste, middle taste, and aftertaste.
A desired concentration of test solution was added to one of the standard solutions of Table 2 to produce an evaluation solution. At this time, for a test sample containing sodium chloride or potassium chloride, the evaluation solution was adjusted such that the total sodium chloride concentration or total potassium chloride concentration of the evaluation solution was equivalent to the respective standard solution. The standard solutions 1 to 8 of Table 2 are indicated in order of potassium chloride concentration. These evaluation solutions were compared to the standard solution, and the corresponding unpleasant flavor of potassium chloride was expressed as a K/Na ratio. The improvement effect was indicated as higher as the ratio of K/Na ratio obtained by evaluation to actual K/Na ratio decreased.

Assay [2] can be described thus: Evaluation method 1: expert panel ranking of potassium chloride unpleasant flavor intensity (normalized rank method), chicken stock soup. The settings on record: for effect of phospholipid for improvement of unpleasant flavor of potassium chloride: phospholipid 0.02 percent in standard solution 8, FIG. 21.
Assay [3] is described as follows: Unpleasant taste distinguishable concentration of potassium chloride, blind ranking by panel. The settings on record: chicken stock soup models, panel n=11; FIG. 28. The procedure:
1.32 g of Chinese soup stock granules (product name=“Marudori-gara Soup”, manufactured by Ajinomoto K.K., standard nutritional ingredients of 2.5 g of Chinese soup stock granules are shown in Table 1) was dissolved in 70 g of distilled water, and the mixture was filtered through filter paper (filter paper no. 2, manufactured by Advantec Toyo K.K.). Thereafter, 0.63 g of NaCl was added, and water was further added to obtain 100 g of chicken stock soup containing an equivalent of 1.26 percent table salt (Table 2, standard solution 1). The concentration of sodium chloride was decreased in a stepwise manner from the composition of the standard solution 1, and potassium chloride was added to produce multiple chicken stock soups (Table 2, standard solutions 2 to 8). […] Intensity of this unpleasant flavor and detailed taste were evaluated by organoleptic evaluation by an expert panel, and results of evaluation were classified in three stages, i.e. initial taste, middle taste, and aftertaste.
Standard solutions 1 to 7 (with the exception of standard solution 2) were evaluated by a panel (n=11) by blind-testing to determine the order of potassium chloride unpleasant flavor intensity.

On to `O=c1cc(-c2ccc(O)cc2)oc2cc(O[C@@H]3O[C@H](CO)[C@@H](O)[C@H](O)[C@H]3O)cc(O)c12` [apigenin 7-glucoside, Apigenin 7-glucoside], for which the “improvement effect against the unpleasant flavor of potassium chloride” value (from here on “improvement effect … of potassium chloride”) in assay [1] is on record as “high effect”. The same measure, in the same setting: in the case of `O=c1cc(-c2ccc(O)cc2)oc2cc(O)cc(O)c12` [apigenin, Apigenin] it was “high effect”; in that of `O=c1c(-c2ccc(O)cc2)coc2cc(O[C@@H]3O[C@H](CO)[C@@H](O)[C@H](O)[C@H]3O)ccc12` [daidzin, Daidzin], “high effect”. As to `O=c1cc(-c2ccc(O)cc2)oc2cc(O[C@@H]3O[C@H](CO)[C@@H](O)[C@H](O)[C@H]3O[C@@H]3OC[C@](O)(CO)[C@H]3O)cc(O)c12` [fraction 13, apiin], the “unpleasant flavor improvement effect of parsley extract fraction relative to its parent solution” value in assay [2] (fraction aqueous solution added at 15 percent by weight to standard solution 8, FIG. 12-15) is “equivalent to that of the evaluation solution 9”. Besides, the “added amount at which near maximum unpleasant flavor improvement effect was reached” value in assay [1] (25, 50, 125, 250 ppm in standard solution 8, FIG. 16) was not below 125 ppm. Also, the “improvement effect … of potassium chloride” value in assay [1] is on record as “particularly high effect”. With `C[C@@H]1O[C@@H](O[C@H]2[C@H](Oc3cc(O)c4c(c3)O[C@H](c3ccc(O)cc3)CC4=O)O[C@H](CO)[C@@H](O)[C@@H]2O)[C@H](O)[C@H](O)[C@H]1O` [naringin, Naringin, reference compound], in assay [1], the “improvement effect … of potassium chloride” value was “improvement effect was not found”. As to `[Cl-].[K+]` [potassium chloride], in assay [3], the “K/Na ratio at which unpleasant flavor of potassium chloride was not generally recognized” value is listed as “less than or equal to 57%”. With “Phosphatidic acid [PA, reference compound]”, the “effect of phospholipid for improvement of unpleasant flavor of potassium chloride” value (shortened to “effect of phospholipid”) in assay [2] is on record as “low”.

Phosphatidylcholine [PC]: in assay [2], the “effect of phospholipid” value is reported as “high effects”. Phosphatidylethanolamine [PE]: the “effect of phospholipid” value in assay [2] is listed as “high effects”. For Phosphatidylinositol [PI], the “effect of phospholipid” value in assay [2] is given as “high effects”.

Consider Phosphatidylserine [PS], for which, in assay [2], the “effect of phospholipid” value is “high effects”.
